Reference: US12428406B2 (PMV Pharmaceuticals, Inc., priority 2019, dated 2025)

These compounds were tested against T1, p53 Y220C (Homo sapiens, UniProt P04637, Y220C) (assay: In vitro DNA binding activity assay (HTRF / TR-FRET): stabilization of p53 Y220C and increase of its DNA binding activity). Conditions: recombinant His-tagged p53 Y220C DNA binding domain (aa 94-312), biotin-labeled consensus DNA, incubated at 27° C. or 29° C. for 60 min.
T1 construct: The recombinant protein was a truncation mutant containing only amino acids 94-312 of p53; made in house; host or cells: E. coli
Format: biochemical
How it was run: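 Test compounds, diluted 3-fold in DMSO from 4.5 mM stocks, were incubated with bacterially expressed His-tagged p53 Y220C at room temperature for 15 min, and after a further step for 20 min. DNA binding was detected by time-resolved FRET between APC and europium labels. SC150 marks the concentration increasing binding by 50%.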

T1 sequence (P04637 94-312, change not shown): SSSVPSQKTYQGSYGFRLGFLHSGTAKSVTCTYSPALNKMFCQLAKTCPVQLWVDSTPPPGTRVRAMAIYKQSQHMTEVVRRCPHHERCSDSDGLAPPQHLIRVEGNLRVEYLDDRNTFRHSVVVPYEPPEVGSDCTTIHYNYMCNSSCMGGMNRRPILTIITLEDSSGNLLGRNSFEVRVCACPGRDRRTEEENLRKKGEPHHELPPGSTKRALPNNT

SC150 (concentration of the compound required to increase the DNA binding activity by 50%), + (+ = 0 μM ≤ SC150 < 0.05 μM):
COc1cc(C(=O)O)ccc1NCC#Cc1cc2c(N[C@H]3CCN(CC(=O)N(C)C)C[C@H]3F)cccc2n1CC(F)(F)F [Compound 927A, 4-{[3-(4-{[(3R,4S)-1-[(dimethylcarbamoyl)methyl]-3-fluoropiperidin-4-yl]amino}-1-(2,2,2-trifluoroethyl)-1H-indol-2-yl)prop-2-yn-1-yl]amino}-3-methoxybenzoic acid]
COc1cc(C(=O)N[C@@H](CCC(=O)O)C(=O)O)ccc1NCC#Cc1cc2c(N[C@@H]3CCN(C)C[C@@H]3F)cccc2n1CC(F)(F)F [Compound 929A, (2S)-2-[(4-{[3-(4-{[(3S,4R)-3-fluoro-1-methylpiperidin-4-yl]amino}-1-(2,2,2-trifluoroethyl)-1H-indol-2-yl)prop-2-yn-1-yl]amino}-3-methoxyphenyl)formamido]pentanedioic acid]
COc1cc(C(=O)N[C@@H](CCC(N)=O)C(=O)O)ccc1NCC#Cc1cc2c(N[C@@H]3CCN(C)C[C@@H]3F)cccc2n1CC(F)(F)F [Compound 930A, (2S)-4-carbamoyl-2-[(4-{[3-(4-{[(3S,4R)-3-fluoro-1-methylpiperidin-4-yl]amino}-1-(2,2,2-trifluoroethyl)-1H-indol-2-yl)prop-2-yn-1-yl]amino}-3-methoxyphenyl)formamido]butanoic acid]
COc1cc(S(=O)(=O)O)ccc1NCC#Cc1cc2c(N[C@@H]3CCN(C)C[C@@H]3F)cccc2n1CC(F)(F)F [Compound 931A, 4-{[3-(4-{[(3S,4R)-3-fluoro-1-methylpiperidin-4-yl]amino}-1-(2,2,2-trifluoroethyl)-1H-indol-2-yl)prop-2-yn-1-yl]amino}-3-methoxybenzene-1-sulfonic acid]
COC(=O)CC[C@H](NC(=O)c1ccc(NCC#Cc2cc3c(N[C@@H]4CCN(C)C[C@@H]4F)cccc3n2CC(F)(F)F)c(OC)c1)C(=O)OC [Compound 932A, 1,5-dimethyl (2S)-2-[(4-{[3-(4-{[(3S,4R)-3-fluoro-1-methylpiperidin-4-yl]amino}-1-(2,2,2-trifluoroethyl)-1H-indol-2-yl)prop-2-yn-1-yl]amino}-3-methoxyphenyl)formamido]pentanedioate]
COc1cc(C(=O)N2CCC(N(C)C)CC2)ccc1NCC#Cc1cc2c(N[C@@H]3CCN(C)C[C@@H]3F)cccc2n1CC(F)(F)F [Compound 933A, 2-[3-({4-[4-(dimethylamino)piperidine-1-carbonyl]-2-methoxyphenyl}amino)prop-1-yn-1-yl]-N-[(3S,4R)-3-fluoro-1-methylpiperidin-4-yl]-1-(2,2,2-trifluoroethyl)-1H-indol-4-amine]
COc1cc(C(=O)O)ccc1NCC#Cc1cc2c(N[C@@H]3CCN(CC(=O)O)C[C@@H]3F)cccc2n1CC(F)(F)F [Compound 934A, 4-{[3-(4-{[(3S,4R)-1-(carboxymethyl)-3-fluoropiperidin-4-yl]amino}-1-(2,2,2-trifluoroethyl)-1H-indol-2-yl)prop-2-yn-1-yl]amino}-3-methoxybenzoic acid]
CCS(=O)(=O)c1ccc(NCC#Cc2cc3c(N[C@@H]4CCNC[C@@H]4F)cccc3n2CC(F)(F)F)c(OC)c1 [Compound 935A, 2-(3-{[4-(ethanesulfonyl)-2-methoxyphenyl]amino}prop-1-yn-1-yl)-N-[(3S,4R)-3-fluoropiperidin-4-yl]-1-(2,2,2-trifluoroethyl)-1H-indol-4-amine]
COc1cc(S(C)(=O)=O)ccc1NCC#Cc1cc2c(N[C@@H]3CC[C@H](N)C[C@H]3F)cccc2n1CC(F)(F)F [Compound 936A]
CN[C@H]1CC[C@@H](Nc2cccc3c2cc(C#CCNc2ccc(S(C)(=O)=O)cc2OC)n3CC(F)(F)F)[C@H](F)C1 [Compound 937A]
COc1cc(S(C)(=O)=O)ccc1NCC#Cc1cc2c(N[C@@H]3CC[C@H](N(C)C)C[C@H]3F)cccc2n1CC(F)(F)F [Compound 938A]
COc1cc(S(=O)(=O)CCO)ccc1NCC#Cc1cc2c(N[C@@H]3CCN(C)C[C@@H]3F)cccc2n1CC(F)(F)F [Compound 939A, 2-(4-{[3-(4-{[(3S,4R)-3-fluoro-1-methylpiperidin-4-yl]amino}-1-(2,2,2-trifluoroethyl)-1H-indol-2-yl)prop-2-yn-1-yl]amino}-3-methoxybenzenesulfonyl)ethan-1-ol]
CCNC(=O)c1ccc(NCC#Cc2cc3c(N[C@@H]4CCN(C)C[C@@H]4F)cccc3n2CC(F)(F)F)c(OC)c1 [Compound 940A, N-ethyl-4-{[3-(4-{[(3S,4R)-3-fluoro-1-methylpiperidin-4-yl]amino}-1-(2,2,2-trifluoroethyl)-1H-indol-2-yl)prop-2-yn-1-yl]amino}-3-methoxybenzamide]
CCOc1cc(S(C)(=O)=O)ccc1NCC#Cc1cc2c(N[C@@H]3CCNC[C@@H]3F)cccc2n1CC(F)(F)F [Compound 941A, 2-{3-[(2-ethoxy-4-methanesulfonylphenyl)amino]prop-1-yn-1-yl}-N-[(3S,4R)-3-fluoropiperidin-4-yl]-1-(2,2,2-trifluoroethyl)-1H-indol-4-amine]
COc1cc(C(=O)N(C)C)ccc1NCC#Cc1cc2c(N[C@@H]3CCN(C)C[C@@H]3F)cccc2n1CC(F)(F)F [Compound 942A, 4-{[3-(4-{[(3S,4R)-3-fluoro-1-methylpiperidin-4-yl]amino}-1-(2,2,2-trifluoroethyl)-1H-indol-2-yl)prop-2-yn-1-yl]amino}-3-methoxy-N,N-dimethylbenzamide]
COc1cc(C(=O)N(C)C(C)C)ccc1NCC#Cc1cc2c(N[C@@H]3CCN(C)C[C@@H]3F)cccc2n1CC(F)(F)F [Compound 944A, 4-{[3-(4-{[(3S,4R)-3-fluoro-1-methylpiperidin-4-yl]amino}-1-(2,2,2-trifluoroethyl)-1H-indol-2-yl)prop-2-yn-1-yl]amino}-3-methoxy-N-methyl-N-(propan-2-yl)benzamide]
COCCNC(=O)c1ccc(NCC#Cc2cc3c(N[C@@H]4CCN(C)C[C@@H]4F)cccc3n2CC(F)(F)F)c(OC)c1 [Compound 945A, 4-{[3-(4-{[(3S,4R)-3-fluoro-1-methylpiperidin-4-yl]amino}-1-(2,2,2-trifluoroethyl)-1H-indol-2-yl)prop-2-yn-1-yl]amino}-3-methoxy-N-(2-methoxyethyl)benzamide]
CCN(CC)CCNC(=O)c1ccc(NCC#Cc2cc3c(N[C@@H]4CCN(C)C[C@@H]4F)cccc3n2CC(F)(F)F)c(OC)c1 [Compound 946A]
COc1cc(C(=O)NCCO)ccc1NCC#Cc1cc2c(N[C@@H]3CCN(C)C[C@@H]3F)cccc2n1CC(F)(F)F [Compound 947A]
COc1cc(C(=O)N[C@@H]2[C@@H](O)[C@H](O)[C@@H](CO)O[C@H]2O)ccc1NCC#Cc1cc2c(N[C@@H]3CCN(C)C[C@@H]3F)cccc2n1CC(F)(F)F [Compound 948A, 4-((3-(4-(((3S,4R)-3-fluoro-1-methylpiperidin-4-yl)amino)-1-(2,2,2-trifluoroethyl)-1H-indol-2-yl)prop-2-yn-1-yl)amino)-3-methoxy-N-((2R,3R,4R,5S,6R)-2,4,5-trihydroxy-6-(hydroxymethyl)tetrahydro-2H-pyran-3-yl)benzamide]
COc1cc(C(=O)N[C@H](C)CO)ccc1NCC#Cc1cc2c(N[C@@H]3CCN(C)C[C@@H]3F)cccc2n1CC(F)(F)F [Compound 950A, 4-{[3-(4-{[(3S,4R)-3-fluoro-1-methylpiperidin-4-yl]amino}-1-(2,2,2-trifluoroethyl)-1H-indol-2-yl)prop-2-yn-1-yl]amino}-N-[(2R)-1-hydroxypropan-2-yl]-3-methoxybenzamide]
CN1CC[C@@H](Nc2cccc3c2cc(C#CCNC(=O)C2CC2)n3CC(F)(F)F)[C@@H](F)C1 [Compound 951A, N-[3-(4-{[(3S,4R)-3-fluoro-1-methylpiperidin-4-yl]amino}-1-(2,2,2-trifluoroethyl)-1H-indol-2-yl)prop-2-yn-1-yl]cyclopropanecarboxamide]
CN1CC[C@@H](Nc2cccc3c2cc(C#CCNC(=O)[C@@H]2C[C@H]2c2ccccc2)n3CC(F)(F)F)[C@@H](F)C1 [Compound 952A, (1R,2R)—N-[3-(4-{[(3S,4R)-3-fluoro-1-methylpiperidin-4-yl]amino}-1-(2,2,2-trifluoroethyl)-1H-indol-2-yl)prop-2-yn-1-yl]-2-phenylcyclopropane-1-carboxamide]
